What was measured:
[1] = target: T1, NIH-3T3 cells overexpressing human IR (Homo sapiens, UniProt P06213); assay: IR cellular autophosphorylation (DELFIA); format: cell-based; settings: 2 h compound, insulin 3 ug/ml for 15 minutes, IC50 category
T1 construct: expressed in transfected cells; host or cells: NIH-3T3 (mouse fibroblasts)
Summary of the method: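 Receptor autophosphorylation measured by DELFIA, capturing IGF-1R or IRβ and detecting with europium anti-pTyr, reported as percent of IGF-1- or insulin-stimulated signal. Compounds (30 uM to 1.5 nM) added 2 h before ligand, then 15 min stimulation (IGF-1 30 ng/ml or insulin 3 ug/ml).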

NCI-H929 = assay: Inhibition of cell proliferation (CellTiter-Glo or InCell analyzer), NCI-H929; format: cell-based; settings: Homo sapiens, 72 h / 3 days, values given as IC50 category
Summary of the method: In one

Colo205 = assay: Inhibition of cell proliferation (CellTiter-Glo or InCell analyzer), Colo205; format: cell-based; settings: Homo sapiens, COLO 205, 72 h / 3 days, values given as IC50 category
Summary of the method: In one

ALK = ALK (Homo sapiens, UniProt Q9UM73); assay: ALK enzyme assay (HTRF); format: biochemical; settings: 0.25 nM ALK, 15.0 μM ATP, values given as pIC50 category
Summary of the method: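 Isolated ALK phosphorylates a biotinylated tyrosine peptide, 120 min at 20° C; anti-phosphotyrosine Eu-cryptate/streptavidin-XL665 HTRF read after 60 min with EDTA-containing detection mix.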

T1 sequence (P06213 28-1382): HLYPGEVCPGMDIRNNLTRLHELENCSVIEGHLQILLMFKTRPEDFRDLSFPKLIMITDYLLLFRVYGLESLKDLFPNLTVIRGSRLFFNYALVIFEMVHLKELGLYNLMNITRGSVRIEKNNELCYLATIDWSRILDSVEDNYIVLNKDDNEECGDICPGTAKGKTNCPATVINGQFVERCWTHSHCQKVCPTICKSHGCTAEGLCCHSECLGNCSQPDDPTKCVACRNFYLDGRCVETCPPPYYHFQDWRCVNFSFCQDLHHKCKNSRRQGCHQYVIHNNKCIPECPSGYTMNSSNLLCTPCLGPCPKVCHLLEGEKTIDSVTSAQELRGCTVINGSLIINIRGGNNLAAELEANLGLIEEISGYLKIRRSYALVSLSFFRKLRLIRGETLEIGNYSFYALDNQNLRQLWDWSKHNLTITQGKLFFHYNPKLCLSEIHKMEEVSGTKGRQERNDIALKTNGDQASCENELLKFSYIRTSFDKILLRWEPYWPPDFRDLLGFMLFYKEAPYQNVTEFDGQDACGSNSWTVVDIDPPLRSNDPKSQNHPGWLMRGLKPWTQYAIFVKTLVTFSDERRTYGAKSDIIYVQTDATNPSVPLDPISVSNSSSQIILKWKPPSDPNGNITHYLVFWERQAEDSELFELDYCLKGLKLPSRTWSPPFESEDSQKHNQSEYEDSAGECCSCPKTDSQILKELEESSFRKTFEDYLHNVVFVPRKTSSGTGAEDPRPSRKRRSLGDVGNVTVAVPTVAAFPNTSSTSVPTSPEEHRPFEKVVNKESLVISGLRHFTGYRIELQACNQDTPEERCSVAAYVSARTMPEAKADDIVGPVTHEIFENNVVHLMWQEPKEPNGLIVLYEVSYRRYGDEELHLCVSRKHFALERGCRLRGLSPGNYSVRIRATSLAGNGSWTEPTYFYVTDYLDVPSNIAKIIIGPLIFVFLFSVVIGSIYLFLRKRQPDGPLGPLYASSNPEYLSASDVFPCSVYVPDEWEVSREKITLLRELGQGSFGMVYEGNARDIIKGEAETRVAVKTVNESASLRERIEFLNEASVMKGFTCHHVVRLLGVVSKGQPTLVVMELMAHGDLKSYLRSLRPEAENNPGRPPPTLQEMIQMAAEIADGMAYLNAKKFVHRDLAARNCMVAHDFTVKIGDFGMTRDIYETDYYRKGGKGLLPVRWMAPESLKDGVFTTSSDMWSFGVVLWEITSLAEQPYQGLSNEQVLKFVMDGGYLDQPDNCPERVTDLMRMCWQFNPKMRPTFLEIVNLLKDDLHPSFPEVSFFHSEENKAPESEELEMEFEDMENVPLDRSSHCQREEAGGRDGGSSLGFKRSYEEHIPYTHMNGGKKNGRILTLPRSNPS
Chain of ALK (Q9UM73 19-1620): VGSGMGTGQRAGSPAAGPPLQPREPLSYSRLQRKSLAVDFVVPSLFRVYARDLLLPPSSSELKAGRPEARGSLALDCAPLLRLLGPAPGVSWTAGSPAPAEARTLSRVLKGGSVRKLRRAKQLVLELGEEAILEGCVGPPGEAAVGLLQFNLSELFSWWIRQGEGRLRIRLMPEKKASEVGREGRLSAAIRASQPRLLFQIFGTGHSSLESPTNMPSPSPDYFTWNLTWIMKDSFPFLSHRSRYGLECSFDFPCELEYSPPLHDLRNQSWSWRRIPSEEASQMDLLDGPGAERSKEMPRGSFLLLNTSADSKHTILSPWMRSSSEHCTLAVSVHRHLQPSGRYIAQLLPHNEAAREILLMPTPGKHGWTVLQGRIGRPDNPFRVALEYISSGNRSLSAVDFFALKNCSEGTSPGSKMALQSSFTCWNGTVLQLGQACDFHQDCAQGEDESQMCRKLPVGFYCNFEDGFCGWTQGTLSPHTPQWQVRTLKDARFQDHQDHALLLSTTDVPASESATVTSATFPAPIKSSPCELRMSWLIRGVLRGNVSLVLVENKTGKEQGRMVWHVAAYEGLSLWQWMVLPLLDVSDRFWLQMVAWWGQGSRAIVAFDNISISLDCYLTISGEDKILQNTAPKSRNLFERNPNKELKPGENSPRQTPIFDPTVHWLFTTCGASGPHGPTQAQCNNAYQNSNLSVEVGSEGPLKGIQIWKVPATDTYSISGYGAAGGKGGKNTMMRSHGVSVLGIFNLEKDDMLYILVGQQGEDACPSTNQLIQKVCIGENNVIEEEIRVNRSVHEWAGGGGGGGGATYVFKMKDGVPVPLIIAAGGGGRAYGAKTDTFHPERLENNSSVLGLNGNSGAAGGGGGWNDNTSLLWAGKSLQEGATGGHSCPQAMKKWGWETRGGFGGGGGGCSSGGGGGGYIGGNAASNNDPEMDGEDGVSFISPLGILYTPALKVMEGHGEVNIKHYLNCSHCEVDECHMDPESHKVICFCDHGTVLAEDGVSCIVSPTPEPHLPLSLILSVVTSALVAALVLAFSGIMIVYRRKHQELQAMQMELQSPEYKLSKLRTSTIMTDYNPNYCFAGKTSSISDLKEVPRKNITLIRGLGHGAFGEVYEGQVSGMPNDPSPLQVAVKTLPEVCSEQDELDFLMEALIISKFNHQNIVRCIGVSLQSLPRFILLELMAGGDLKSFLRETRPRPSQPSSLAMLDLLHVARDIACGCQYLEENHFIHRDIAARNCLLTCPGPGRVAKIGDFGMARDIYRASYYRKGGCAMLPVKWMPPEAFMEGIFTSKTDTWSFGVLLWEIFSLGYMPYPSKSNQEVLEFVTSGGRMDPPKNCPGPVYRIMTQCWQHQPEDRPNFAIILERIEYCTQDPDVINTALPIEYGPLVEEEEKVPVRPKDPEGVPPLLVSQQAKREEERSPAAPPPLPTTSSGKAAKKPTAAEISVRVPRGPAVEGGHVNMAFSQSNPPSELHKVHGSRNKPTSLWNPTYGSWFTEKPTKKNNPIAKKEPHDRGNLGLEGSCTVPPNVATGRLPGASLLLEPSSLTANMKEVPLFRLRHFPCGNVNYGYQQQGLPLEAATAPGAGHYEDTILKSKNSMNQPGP

| IC50 [1] [nM] | IC50 (NCI-H929) [nM] | IC50 (Colo205) [nM] | IC50 (ALK) [nM] | SMILES |
| --- | --- | --- | --- | --- |
| > 500 | > 1000 | 250 to 1000 | 5.01 to 200 | COc1cc2c(cc1Nc1nc(Nc3cccc(F)c3C(N)=O)c3cc[nH]c3n1)NCC2 [Example 140, 2-fluoro-6-[(2-{[5-(methyloxy)-2,3-dihydro-1H-indol-6-yl]amino}-1H-pyrrolo[2,3-d]pyrimidin-4-yl)amino]benzamide] |
| > 500 | 250 to 1000 | > 1000 | 5.01 to 200 | CNC(=O)c1c(F)cccc1Nc1nc(Nc2cc3c(cc2OC)CCCN3C(=O)CCN(C)C)nc2[nH]ccc12 [Example 213, 2-[(2-{[1-(N,N-dimethyl-β-alanyl)-6-(methyloxy)-1,2,3,4-tetrahydro-7-quinolinyl]amino}-1H-pyrrolo[2,3-d]pyrimidin-4-yl)amino]-6-fluoro-N-methylbenzamide] |
| 100 to 500 | < 250 | < 250 | 1.26 to 3.98 | COc1cc2c(cc1Nc1nc(Nc3cc4ccccc4cc3C(N)=O)c3cc[nH]c3n1)N(C(=O)CN(C)C)CC2 [Example 124, 3-[(2-{[1-(N,N-dimethylglycyl)-5-(methyloxy)-2,3-dihydro-1H-indol-6-yl]amino}-1H-pyrrolo[2,3-d]pyrimidin-4-yl)amino]-2-naphthalenecarboxamide] |
| < 100 | < 250 | 250 to 1000 | 0.251 to 1 | CNC(=O)c1c(F)cc(F)cc1Nc1nc(Nc2cc3c(cc2OC)CCN3C(=O)CN(C)C)nc2[nH]ccc12 [Example 190, 2-[(2-{[1-(N,N-dimethylglycyl)-5-(methyloxy)-2,3-dihydro-1H-indol-6-yl]amino}-1H-pyrrolo[2,3-d]pyrimidin-4-yl)amino]-4,6-difluoro-N-methylbenzamide] |
| 100 to 500 | < 250 | 250 to 1000 | 5.01 to 200 | CCN(CC)CC(=O)N1CCc2cc(OC)c(Nc3nc(Nc4cccc(F)c4C(=O)NC)c4cc[nH]c4n3)cc21 [Example 137, 2-[(2-{[1-(N,N-diethylglycyl)-5-(methyloxy)-2,3-dihydro-1H-indol-6-yl]amino}-1H-pyrrolo[2,3-d]pyrimidin-4-yl)amino]-6-fluoro-N-methylbenzamide] |
| < 100 | < 250 | < 250 | 1.26 to 3.98 | COc1cc2c(cc1Nc1nc(Nc3cccc4c3C(=O)NC4)c3cc[nH]c3n1)N(C(=O)CN(C)C)CC2 [Example 200, 7-[(2-{[1-(N,N-dimethylglycyl)-5-(methyloxy)-2,3-dihydro-1H-indol-6-yl]amino}-1H-pyrrolo[2,3-d]pyrimidin-4-yl)amino]-2,3-dihydro-1H-isoindol-1-one] |
| > 500 | 250 to 1000 | > 1000 | 5.01 to 200 | CNC(=O)c1c(F)cccc1Nc1nc(Nc2cc3c(cc2OC)CCC(=O)N3)nc2[nH]ccc12 [Example 222, 2-fluoro-N-methyl-6-[(2-{[6-(methyloxy)-2-oxo-1,2,3,4-tetrahydro-7-quinolinyl]amino}-1H-pyrrolo[2,3-d]pyrimidin-4-yl)amino]benzamide] |
| > 500 | > 1000 | > 1000 | 5.01 to 200 | CCCN(CCC)[C@@H](C)C(=O)N1CCc2cc(OC)c(Nc3nc(Nc4cccc(F)c4C(=O)NC)c4cc[nH]c4n3)cc21 [Example 191, 2-[(2-{[1-(N,N-dipropyl-L-alanyl)-5-(methyloxy)-2,3-dihydro-1H-indol-6-yl]amino}-1H-pyrrolo[2,3-d]pyrimidin-4-yl)amino]-6-fluoro-N-methylbenzamide] |
| < 100 | < 250 | < 250 | 0.251 to 1 | COc1cc2c(cc1Nc1nc(Nc3cccc(F)c3C(N)=O)c3cc[nH]c3n1)N(C(=O)CN1CCCCC1)CCC2 [Example 218, 2-fluoro-6-[(2-{[6-(methyloxy)-1-(1-piperidinylacetyl)-1,2,3,4-tetrahydro-7-quinolinyl]amino}-1H-pyrrolo[2,3-d]pyrimidin-4-yl)amino]benzamide] |
| < 100 | 250 to 1000 | 250 to 1000 | 0.251 to 1 | CCNC(=O)c1c(F)cc(F)cc1Nc1nc(Nc2cc3c(cc2OC)CCCN3C(=O)CN(C)C)nc2[nH]ccc12 [Example 180, 2-[(2-{[1-(N,N-dimethylglycyl)-6-(methyloxy)-1,2,3,4-tetrahydro-7-quinolinyl]amino}-1H-pyrrolo[2,3-d]pyrimidin-4-yl)amino]-N-ethyl-4,6-difluorobenzamide] |
| 100 to 500 | < 250 | 250 to 1000 | 5.01 to 200 | CNC(=O)c1c(F)cccc1Nc1nc(Nc2cc3c(cc2OC)CCCN3C(=O)[C@@H]2CCCN2C)nc2[nH]ccc12 [Example 202, 2-fluoro-N-methyl-6-[(2-{[6-(methyloxy)-1-(1-methyl-L-prolyl)-1,2,3,4-tetrahydro-7-quinolinyl]amino}-1H-pyrrolo[2,3-d]pyrimidin-4-yl)amino]benzamide] |
| < 100 | < 250 | 250 to 1000 | 5.01 to 200 | CCCN(CCC)[C@@H](C)C(=O)N1CCc2cc(OC)c(Nc3nc(Nc4cccc(F)c4C(N)=O)c4cc[nH]c4n3)cc21 [Example 192, 2-[(2-{[1-(N,N-dipropyl-L-alanyl)-5-(methyloxy)-2,3-dihydro-1H-indol-6-yl]amino}-1H-pyrrolo[2,3-d]pyrimidin-4-yl)amino]-6-fluorobenzamide] |
| > 500 | 250 to 1000 | > 1000 | 5.01 to 200 | COc1cc2c(cc1Nc1nc(Nc3cccc(F)c3C(N)=O)c3cc[nH]c3n1)N(C(=O)N(C)C)CC2 [Example 146, 6-[(4-{[2-(aminocarbonyl)-3-fluorophenyl]amino}-1H-pyrrolo[2,3-d]pyrimidin-2-yl)amino]-N,N-dimethyl-5-(methyloxy)-2,3-dihydro-1H-indole-1-carboxamide] |
| > 500 | < 250 | > 1000 | 1.26 to 3.98 | CNC(=O)c1c(F)cccc1Nc1nc(Nc2cc3c(cc2OC)CCN(C(C)C)C3)nc2[nH]ccc12 [Example 235, 2-fluoro-N-methyl-6-[(2-{[2-(1-methylethyl)-6-(methyloxy)-1,2,3,4-tetrahydro-7-isoquinolinyl]amino}-1H-pyrrolo[2,3-d]pyrimidin-4-yl)amino]benzamide] |
| 100 to 500 | 250 to 1000 | 250 to 1000 | 0.251 to 1 | CCCNC(=O)c1c(F)cc(F)cc1Nc1nc(Nc2cc3c(cc2OC)CCN3C(=O)CN(C)C)nc2[nH]ccc12 [Example 152, 2-[(2-{[1-(N,N-dimethylglycyl)-5-(methyloxy)-2,3-dihydro-1H-indol-6-yl]amino}-1H-pyrrolo[2,3-d]pyrimidin-4-yl)amino]-4,6-difluoro-N-propylbenzamide] |
| < 100 | < 250 | < 250 | 0.251 to 1 | COc1ccc(NC(=O)CN(C)C)cc1Nc1nc(Nc2cccc(F)c2C(N)=O)c2cc[nH]c2n1 [Example 244, 2-[(2-{[5-[(N,N-dimethylglycyl)amino]-2-(methyloxy)phenyl]amino}-1H-pyrrolo[2,3-d]pyrimidin-4-yl)amino]-6-fluorobenzamide] |
| > 500 | < 250 | > 1000 | 5.01 to 200 | COc1cc2c(cc1Nc1nc(Nc3cccc(F)c3C(N)=O)c3cc[nH]c3n1)N(C(=O)CN1CCOCC1)CC2 [Example 185, 2-fluoro-6-[(2-{[5-(methyloxy)-1-(4-morpholinylacetyl)-2,3-dihydro-1H-indol-6-yl]amino}-1H-pyrrolo[2,3-d]pyrimidin-4-yl)amino]benzamide] |
| > 500 | 250 to 1000 | > 1000 | 1.26 to 3.98 | COc1cc2c(cc1Nc1nc(Nc3ccc(F)c(F)c3C(=O)NC(C)C)c3cc[nH]c3n1)N(C(=O)CN(C)C)CC2 [Example 161, 6-[(2-{[1-(N,N-dimethylglycyl)-5-(methyloxy)-2,3-dihydro-1H-indol-6-yl]amino}-1H-pyrrolo[2,3-d]pyrimidin-4-yl)amino]-2,3-difluoro-N-(1-methylethyl)benzamide] |
| 100 to 500 | < 250 | 250 to 1000 | 1.26 to 3.98 | COc1cc2c(cc1Nc1nc(Nc3cccc(F)c3C(N)=O)c3cc[nH]c3n1)N(C(=O)CN1CCC1)CC2 [Example 143, 2-[(2-{[1-(1-azetidinylacetyl)-5-(methyloxy)-2,3-dihydro-1H-indol-6-yl]amino}-1H-pyrrolo[2,3-d]pyrimidin-4-yl)amino]-6-fluorobenzamide] |
| > 500 | 250 to 1000 | 250 to 1000 | 5.01 to 200 | COc1cc2c(cc1Nc1nc(Nc3cccc(F)c3C(N)=O)c3cc[nH]c3n1)N(C(=O)CCN1CCN(C(C)C)CC1)CC2 [Example 188, 2-fluoro-6-[(2-{[1-{3-[4-(1-methylethyl)-1-piperazinyl]propanoyl}-5-(methyloxy)-2,3-dihydro-1H-indol-6-yl]amino}-1H-pyrrolo[2,3-d]pyrimidin-4-yl)amino]benzamide] |
| 100 to 500 | 250 to 1000 | > 1000 | 5.01 to 200 | COCC(=O)N1CCc2cc(OC)c(Nc3nc(Nc4cccc(F)c4C(N)=O)c4cc[nH]c4n3)cc21 [Example 149, 2-fluoro-6-{[2-({5-(methyloxy)-1-[(methyloxy)acetyl]-2,3-dihydro-1H-indol-6-yl}amino)-1H-pyrrolo[2,3-d]pyrimidin-4-yl]amino}benzamide] |
